Assay results: article PMC8979340 (RSC Advances, 2022)
pEC50, pIC50: −log10 of the molar value.

How the values were obtained:
[1] = target: T1, human TGR5 (Homo sapiens, UniProt Q8TDU6); test: cAMP HTRF TGR5 agonism assay in HEK293T cells expressing human TGR5; format: cell-based; settings: for TGR5 agonistic activity (in words): hTGR5, cAMP HTRF
T1 sequence (Q8TDU6 1-330): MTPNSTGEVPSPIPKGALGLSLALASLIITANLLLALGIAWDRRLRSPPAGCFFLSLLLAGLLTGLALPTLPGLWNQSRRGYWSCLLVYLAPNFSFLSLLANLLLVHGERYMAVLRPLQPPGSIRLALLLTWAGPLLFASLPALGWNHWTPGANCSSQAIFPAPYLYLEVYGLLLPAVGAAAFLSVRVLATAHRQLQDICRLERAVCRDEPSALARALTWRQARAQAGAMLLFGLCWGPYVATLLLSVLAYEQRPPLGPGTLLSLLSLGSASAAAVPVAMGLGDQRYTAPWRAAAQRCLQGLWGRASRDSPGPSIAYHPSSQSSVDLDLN

[2] = target: T2, mouse TGR5 (Mus musculus, UniProt Q80SS6); test: cAMP HTRF TGR5 agonism assay in HEK293T cells expressing mouse TGR5; format: cell-based
T2 sequence (Q80SS6 1-329): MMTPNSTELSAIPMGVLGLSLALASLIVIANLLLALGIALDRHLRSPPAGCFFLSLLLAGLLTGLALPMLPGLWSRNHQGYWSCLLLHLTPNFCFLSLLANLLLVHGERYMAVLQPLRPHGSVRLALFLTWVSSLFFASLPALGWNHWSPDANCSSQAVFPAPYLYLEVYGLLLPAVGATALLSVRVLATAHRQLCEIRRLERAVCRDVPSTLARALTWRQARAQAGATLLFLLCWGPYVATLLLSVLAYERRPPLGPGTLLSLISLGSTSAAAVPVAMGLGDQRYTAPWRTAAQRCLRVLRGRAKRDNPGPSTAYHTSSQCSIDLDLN

[3] = test system: A549 cells; test: CCK8 cytotoxicity assay in A549 cells; format: cell-based; settings: Homo sapiens, A549, read-out: IC50 A549
[4] = test system: HeLa cells; test: CCK8 cytotoxicity assay in HeLa cells; format: cell-based; settings: Homo sapiens, read-out: IC50 HeLa
[5] = In vitro human plasma stability assay; format: in vitro ADME
[6] = test system: NCI-H716 cells; test: In vitro GLP-1 secretion assay; format: cell-based, human; settings: 4 μM, 2 h
[7] = test system: C57 BL/6 mice; test: In vivo GLP-1 secretion; settings: 50 mg kg−1 oral, blood 4 h later

With O=C(C1Cc2ccccc2CN1Cc1ccc(Cl)cc1)N1CCN(C2CC2)c2ccccc21 (stereo not shown) [18a, (2-(4-Chlorobenzyl)-1,2,3,4-tetrahydroisoquinolin-3-yl)(4-cyclopropyl-3,4-dihydroquinoxalin-1(2H)-yl)methanone] the pEC50 [1] was < 4.52 and the “TGR5 agonistic activity (in words)” value [1] was “no TGR5 agonistic activities”.
With O=C(c1cc2ccccc2n1Cc1ccc(Cl)cc1)N1CCN(C2CC2)c2ccccc21 [18b, (1-(4-Chlorobenzyl)-1H-indol-2-yl)(4-cyclopropyl-3,4-dihydroquinoxalin-1(2H)-yl)methanone] the pEC50 [1] was < 4.52 and the “TGR5 agonistic activity (in words)” value [1] was “no TGR5 agonistic activities”.
With O=C(c1cc2sccc2n1Cc1ccc(Cl)cc1)N1CCN(C2CC2)c2ccccc21 [18c, (4-(4-Chlorobenzyl)-4H-thieno[3,2-b]pyrrol-5-yl)(4-cyclopropyl-3,4-dihydroquinoxalin-1(2H)-yl)methanone] the pEC50 [1] was < 4.52 and the “TGR5 agonistic activity (in words)” value [1] was “no TGR5 agonistic activities”.
O=C(c1nccnc1Oc1ccc(Cl)cc1)N1CCN(C2CC2)c2ccccc21 [18d, (3-(4-Chlorophenoxy)pyrazin-2-yl)(4-cyclopropyl-3,4-dihydroquinoxalin-1(2H)-yl)methanone] gave a pEC50 [1] of 5.82.
For O=C(c1nccnc1Oc1ccc(F)cc1)N1CCN(C2CC2)c2ccccc21 [18e, (4-Cyclopropyl-3,4-dihydroquinoxalin-1(2H)-yl)(3-(4-fluorophenoxy)pyrazin-2-yl)methanone], the pEC50 [1] was 6.35.
Compound O=C(c1nccnc1Oc1ccccc1F)N1CCN(C2CC2)c2ccccc21 [18f, (4-Cyclopropyl-3,4-dihydroquinoxalin-1(2H)-yl)(3-(2-fluorophenoxy)pyrazin-2-yl)methanone] has a pEC50 [1] of 7.43.
In the case of O=C(c1nccnc1Oc1ccccc1Cl)N1CCN(C2CC2)c2ccccc21 [18g, (3-(2-Chlorophenoxy)pyrazin-2-yl)(4-cyclopropyl-3,4-dihydroquinoxalin-1(2H)-yl)methanone], the pEC50 [1] was 8.84, the pEC50 [2] was 6.92 and the pIC50 [3] was < 4.30. For the same compound, the pIC50 [4] was < 4.30.
In the case of COc1ccc(Oc2nccnc2C(=O)N2CCN(C3CC3)c3ccccc32)cc1 [18h, (4-Cyclopropyl-3,4-dihydroquinoxalin-1(2H)-yl)(3-(4-methoxyphenoxy)pyrazin-2-yl)methanone], the pEC50 [1] was 6.71.
Cc1ccc(Oc2nccnc2C(=O)N2CCN(C3CC3)c3ccccc32)cc1 [18i, (4-Cyclopropyl-3,4-dihydroquinoxalin-1(2H)-yl)(3-(p-tolyloxy)pyrazin-2-yl)methanone] gave a pEC50 [1] of 7.08.
For O=C(c1nccnc1Oc1ccc(Cl)cc1Cl)N1CCN(C2CC2)c2ccccc21 [18j, (4-Cyclopropyl-3,4-dihydroquinoxalin-1(2H)-yl)(3-(2,4-dichlorophenoxy)pyrazin-2-yl)methanone], the pEC50 [1] was 8.00, the pEC50 [2] was 6.27 and the pIC50 [3] was < 4.30. For the same compound, the pIC50 [4] was < 4.30.
For O=C(c1nccnc1Oc1cc(Cl)ccc1Cl)N1CCN(C2CC2)c2ccccc21 [18k, (4-Cyclopropyl-3,4-dihydroquinoxalin-1(2H)-yl)(3-(2,5-dichlorophenoxy)pyrazin-2-yl)methanone], the pEC50 [1] was 9.24, the pEC50 [2] was 6.57 and the half-life [5] was > 4.82 h. The remaining at 0 h [5] was 100%, the remaining at 0.5 h [5] was 104% and the remaining at 1 h [5] was 102%. The remaining at 2 h [5] was 85.4%, the pIC50 [3] was < 4.30 and the pIC50 [4] was < 4.30. The “GLP-1 secretion compared to control” value [6] was “increase the secretion of GLP-1” and the “GLP-1 secretion compared to control” value [7] was “increase GLP-1 secretion”.
O=C(c1nccnc1Oc1ccc(-c2ccccc2)cc1)N1CCN(C2CC2)c2ccccc21 [18l, (3-([1,1′-Biphenyl]-4-yloxy)pyrazin-2-yl)(4-cyclopropyl-3,4-dihydroquinoxalin-1(2H)-yl)methanone] gave a pEC50 [1] of 6.05.
In the case of O=C(c1nccnc1Oc1cc(Cl)ccc1Cl)N1CCN(c2ccccc2F)CC1 [18o, (3-(2,5-Dichlorophenoxy)pyrazin-2-yl)(4-(2-fluorophenyl)piperazin-1-yl)methanone], the pEC50 [1] was < 5.00.
For CN(C(=O)c1nccnc1Oc1cc(Cl)ccc1Cl)c1ccc(F)cc1 [18r, 3-(2,5-Dichlorophenoxy)-N-(4-fluorophenyl)-N-methylpyrazine-2-carboxamide], the pEC50 [1] was < 5.00.
For O=C(c1nccnc1Oc1cc(Cl)ccc1Cl)N1CCOc2ccccc21 [18u, (3-(2,5-Dichlorophenoxy)pyrazin-2-yl)(2,3-dihydro-4H-benzo[b][1,4]oxazin-4-yl)methanone], the pEC50 [1] was < 5.00.
